US20020137929A1, “1 - (3-heterocyclylphenyl) isothiourea, -isourea, -guanidine and -amidine herbicidal agents” (Intellectual Property Department, BASF Aktiengesellschaft, priority 1998, published 2002)

What was measured:
ORYSAT (Rice, Tebonnet) = experiment: Postemergence herbicidal evaluation; type: in vivo, Oryza sativa, (L.) Tebonnet; conditions: postemergence
Outline: (§1)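 Compound is applied as a foliar spray to seedlings about two weeks old, formulated in equal parts acetone and water with 0.5% TWEEN 20 and delivered at 40 psi to give about 0.0156–0.500 kg per hectare. Injury is rated visually 0–9 after four to five weeks.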

AMBEL (Ragweed, Common) = experiment: Postemergence herbicidal evaluation; type: in vivo, Ambrosia artemisifolia; conditions: postemergence
Outline: as §1

GALAP (Galium) = experiment: Postemergence herbicidal evaluation; type: in vivo, Galium aparine; conditions: postemergence
Outline: as §1

[1] = system: CHEAL (Lambsquarters, Common); experiment: Postemergence herbicidal evaluation; type: in vivo, Chenopodium album; conditions: postemergence
Outline: as §1

CYPIR (Rice Flatsedge) = experiment: Preemergence weed control under flooded paddy conditions; type: in vivo, Cyperus iria; conditions: rated 3-4 weeks after treatment
Outline: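 First, seeds or propagules go into the top 0.5 cm of silt loam; next, water is held 1.5 to 3 cm over the soil; then compound (50/50 acetone/water) is pipetted into it at about 0.0313 to 0.500 kg/ha; finally plants are rated visually 0-9 after three to four weeks.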

ZEAMX (Corn, Field) = experiment: Preemergence herbicidal evaluation; type: in vivo, Zea mays; conditions: rated 4-5 weeks after treatment
Outline: (§2)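 Scores use a 0–9 visual scale covering stand, vigor, malformation, size and chlorosis relative to controls, rated four to five weeks after treatment. Before emergence, soil-planted seeds were sprayed with compound in aqueous acetone at roughly 0.0156–0.500 kg/ha and held in the greenhouse.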

CASOB (Sicklepod) [2] = experiment: Preemergence herbicidal evaluation; type: in vivo, Cassia obtusifolia; conditions: rated 4-5 weeks after treatment
Outline: as §2

CYPSE (Flatsedge) [3] = experiment: Postemergence weed control under flooded paddy conditions; type: in vivo, Cyperus serotinus; conditions: postemergence weeds, 3-4 weeks after treatment
From the text: Results of herbicide evaluation are expressed on a rating scale (0-9). The scale is based upon a visual observation of plant stand, vigor, malformation, size, chlorosis and overall plant appearance as compared with a control.
Plastic containers containing weeds which are 3 to 5 cm tall and rice seedlings at the 1.5 to 2.5 leaf stage are flooded with water. The water is maintained at 1.5 to 3 cm above the soil surface for the duration of the experiment. Test compounds are applied as aqueous/ acetone mixtures 50/50 v/v directly into the flood water to provide the equivalent of about 0.0313 to 0.500 kg/ha of active ingredient. The treated containers are placed on greenhouse benches and cared for in accordance with conventional greenhouse procedures. Three to four weeks after treatment, the test is terminated and each container is examined and herbicidal effect rated according to the rating system provided in Example 37. The compounds evaluated are reported by compound number given in Example 37.

CYPSE (Flatsedge) [4] = experiment: Preemergence weed control under flooded paddy conditions; type: in vivo, Cyperus serotinus; conditions: rated 3-4 weeks after treatment
Outline: (§3)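 Herbicidal effect is scored visually on a 0-9 scale against an untreated control, three to four weeks after compounds are pipetted into the flood water (1.5 to 3 cm deep) over seeds planted in silt loam at 0.5 cm depth. Rates: about 0.0313 to 0.500 kg/ha.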

ECHCG (Barnyardgrass) = experiment: Postemergence herbicidal evaluation; type: in vivo, Echinochloa crus-galli; conditions: postemergence
Outline: as §1

[5] = system: SAGPY (Arrowhead (Pygmaea)); experiment: Preemergence weed control under flooded paddy conditions; type: in vivo, Sagittaria pygmaea; conditions: rated 3-4 weeks after treatment
Outline: as §3

CASOB (Sicklepod) [6] = experiment: Postemergence herbicidal evaluation; type: in vivo, Cassia obtusifolia; conditions: postemergence
Outline: as §1

SETVI (Foxtail, Green) = experiment: Postemergence herbicidal evaluation; type: in vivo, Setaria viridis; conditions: postemergence
Outline: as §1

CN1C(=O)C(F)SC1=Nc1cc(N2C(=O)C3=C(CCCC3)C2=O)c(F)cc1Cl (centres unmarked) [Compound 5, N-{4-chloro-2-fluoro-5-[(5-fluoro-3-methyl-4-oxo-2-thiazolidinylidene)amino]phenyl}-1-cyclohexene-1,2-dicarboximide]
ORYSAT herbicidal rating (ORYSAT (Rice, Tebonnet); rate 0.0157 kg/ha): 1.5 | ORYSAT herbicidal rating (ORYSAT (Rice, Tebonnet); rate 0.0313 kg/ha): 1.5 | ORYSAT herbicidal rating (ORYSAT (Rice, Tebonnet); rate 0.0625 kg/ha): 2.5 | ORYSAT herbicidal rating (ORYSAT (Rice, Tebonnet); rate 0.1250 kg/ha): 2.5 | ORYSAT herbicidal rating (ORYSAT (Rice, Tebonnet); rate 0.2500 kg/ha): 2.5 | ORYSAT herbicidal rating (ORYSAT (Rice, Tebonnet); rate 0.5000 kg/ha): 2.5 | AMBEL herbicidal rating (AMBEL (Ragweed, Common); rate 0.0157 kg/ha): 0.0 | AMBEL herbicidal rating (AMBEL (Ragweed, Common); rate 0.0313 kg/ha): 0.0 | AMBEL herbicidal rating (AMBEL (Ragweed, Common); rate 0.0625 kg/ha): 0.0 | AMBEL herbicidal rating (AMBEL (Ragweed, Common); rate 0.1250 kg/ha): 0.0 | AMBEL herbicidal rating (AMBEL (Ragweed, Common); rate 0.2500 kg/ha): 2.0 | AMBEL herbicidal rating (AMBEL (Ragweed, Common); rate 0.5000 kg/ha): 9.0 | GALAP herbicidal rating (GALAP (Galium); rate 0.0157 kg/ha): 0.0 | GALAP herbicidal rating (GALAP (Galium); rate 0.0313 kg/ha): 2.0 | GALAP herbicidal rating (GALAP (Galium); rate 0.0625 kg/ha): 8.0 | GALAP herbicidal rating (GALAP (Galium); rate 0.1250 kg/ha): 9.0 | GALAP herbicidal rating (GALAP (Galium); rate 0.2500 kg/ha): 9.0 | GALAP herbicidal rating (GALAP (Galium); rate 0.5000 kg/ha): 9.0 | CHEAL herbicidal rating ([1]; rate 0.0157 kg/ha): 2.0 | CHEAL herbicidal rating ([1]; rate 0.0313 kg/ha): 2.0 | CHEAL herbicidal rating ([1]; rate 0.0625 kg/ha): 6.0 | CHEAL herbicidal rating ([1]; rate 0.1250 kg/ha): 9.0 | CHEAL herbicidal rating ([1]; rate 0.2500 kg/ha): 8.0 | CHEAL herbicidal rating ([1]; rate 0.5000 kg/ha): 9.0 | Herbicidal rating CYPIR (CYPIR (Rice Flatsedge); 0.1250 kg/ha): 0.0 | Herbicidal rating CYPIR (CYPIR (Rice Flatsedge); 0.2500 kg/ha): 0.0 | Herbicidal rating CYPIR (CYPIR (Rice Flatsedge); 0.5000 kg/ha): 0.0 | ZEAMX preemergence herbicidal rating (ZEAMX (Corn, Field); rate 0.0625 kg/ha): 0.0 | ZEAMX preemergence herbicidal rating (ZEAMX (Corn, Field); rate 0.1250 kg/ha): 1.0 | ZEAMX preemergence herbicidal rating (ZEAMX (Corn, Field); rate 0.2500 kg/ha): 2.0 | ZEAMX preemergence herbicidal rating (ZEAMX (Corn, Field); rate 0.5000 kg/ha): 2.0 | CASOB preemergence herbicidal rating (CASOB (Sicklepod) [2]; rate 0.0625 kg/ha): 0.0 | CASOB preemergence herbicidal rating (CASOB (Sicklepod) [2]; rate 0.1250 kg/ha): 0.0 | CASOB preemergence herbicidal rating (CASOB (Sicklepod) [2]; rate 0.2500 kg/ha): 0.0 | CASOB preemergence herbicidal rating (CASOB (Sicklepod) [2]; rate 0.5000 kg/ha): 0.0 | Herbicidal rating CYPSE (CYPSE (Flatsedge) [3]; rate 0.1250 kg/ha): 0.0 | Herbicidal rating CYPSE (CYPSE (Flatsedge) [3]; rate 0.2500 kg/ha): 0.0 | Herbicidal rating CYPSE (CYPSE (Flatsedge) [3]; rate 0.5000 kg/ha): 0.5 | Herbicidal rating CYPSE (CYPSE (Flatsedge) [4]; 0.1250 kg/ha): 0.0 | Herbicidal rating CYPSE (CYPSE (Flatsedge) [4]; 0.2500 kg/ha): 0.0 | Herbicidal rating CYPSE (CYPSE (Flatsedge) [4]; 0.5000 kg/ha): 1.0 | ECHCG herbicidal rating (ECHCG (Barnyardgrass); rate 0.0157 kg/ha): 0.0 | ECHCG herbicidal rating (ECHCG (Barnyardgrass); rate 0.0313 kg/ha): 0.0 | ECHCG herbicidal rating (ECHCG (Barnyardgrass); rate 0.0625 kg/ha): 0.0 | ECHCG herbicidal rating (ECHCG (Barnyardgrass); rate 0.1250 kg/ha): 3.0 | ECHCG herbicidal rating (ECHCG (Barnyardgrass); rate 0.2500 kg/ha): 4.0 | ECHCG herbicidal rating (ECHCG (Barnyardgrass); rate 0.5000 kg/ha): 2.0 | Herbicidal rating SAGPY ([5]; 0.1250 kg/ha): 0.0 | Herbicidal rating SAGPY ([5]; 0.2500 kg/ha): 0.0 | Herbicidal rating SAGPY ([5]; 0.5000 kg/ha): 0.0 | CASOB herbicidal rating (CASOB (Sicklepod) [6]; rate 0.0157 kg/ha): 0.0 | CASOB herbicidal rating (CASOB (Sicklepod) [6]; rate 0.0313 kg/ha): 0.0 | CASOB herbicidal rating (CASOB (Sicklepod) [6]; rate 0.0625 kg/ha): 0.0 | CASOB herbicidal rating (CASOB (Sicklepod) [6]; rate 0.1250 kg/ha): 0.0 | CASOB herbicidal rating (CASOB (Sicklepod) [6]; rate 0.2500 kg/ha): 0.0 | CASOB herbicidal rating (CASOB (Sicklepod) [6]; rate 0.5000 kg/ha): 9.0 | SETVI herbicidal rating (SETVI (Foxtail, Green); rate 0.0157 kg/ha): 0.0 | SETVI herbicidal rating (SETVI (Foxtail, Green); rate 0.0313 kg/ha): 0.0 | SETVI herbicidal rating (SETVI (Foxtail, Green); rate 0.0625 kg/ha): 2.0 | SETVI herbicidal rating (SETVI (Foxtail, Green); rate 0.1250 kg/ha): 4.0 | SETVI herbicidal rating (SETVI (Foxtail, Green); rate 0.2500 kg/ha): 8.0 | SETVI herbicidal rating (SETVI (Foxtail, Green); rate 0.5000 kg/ha): 4.0
